Measurements reported in publication PMC12503906, “Novel Pyrazolo [1,5‐a]−1,3,5‐Triazine Derivatives as CDK7 Inhibitors: Synthesis and Biological Insights in Pancreatic Ductal Adenocarcinoma Models” (Chemmedchem, 2025).

Legend:
PDAC3 = experiment: Wound healing assay, PDAC3; format: cell-based; conditions: PDAC3, up to 24 h
Description: The wound healing assay was used to test the migratory ability of the selected cells post‐treatment. Cells (5 × 10^4 /well) were seeded on 96‐well. After 24 h, cells reached the optimal 100% confluency, and an artificial wound was created with a 96‐well Pintool Scratcher. The cells were immediately washed with complete medium, in order to remove cell debris after the scratch, and images of the wells were captured at time 0 h, right before the addition of the treatment. Each drug (1b and 1g) was previously diluted in the respective medium at two different concentrations: 1 × IC50 and 4 × IC50 (according to the cell specific IC50 value) and were then added to the cells. Images were then taken at timepoints 4, 8, 20, and 24 h using the Leica microscope with a JAI TMC‐137 camera to assess wound closure. The images were analyzed using the Universal Grab 6.3 software (DCILabs), and the obtained data were used to determine the percentage of migration of the cells, using the following formula. (2) % Migration=Mean width of the wound atT=0−Mean width of the wound atT=X/Mean width of the wound atT=0×100

Bax/Bcl‐2 = Bax/Bcl‐2 ratio by RT‐PCR, PDAC3 cells; format: cell-based
Description: In order to understand modulation of downstream genes of CDK7, gene expression analysis by qPCR was performed in all cell lines. Cells (5 × 10^5/well) were seeded in 6‐well plates and treated with the compounds 1b and 1g at 1× and 4 × IC50 concentrations. Cell lysates were collected 24 h post‐treatment using 300 µL of TRIzol Reagent (Ambion, 15,596,018) per well. Total RNA was extracted by mixing 60 µL of chloroform to the samples, incubating for 3 min and centrifuging at 12,000 rcf for 15 min at 4 °C. The upper aqueous phase containing RNA was transferred to a new Eppendorf and mixed with 120 µL of cold isopropanol in order to allow the RNA to precipitate. Samples were incubated at RT for 10 min and were then centrifuged at 12,000 rcf for 10 min at 4 °C. The isopropanol was carefully removed, and the pellet was washed twice with 70% ETOH. Pellets were left to air dry and consequently resuspended in RNAse‐free water. Samples were left agitation on a thermomixer at 55 °C for 10 min at 600 rpm and were then quantified through NanoDrop technology (Thermo Scientific, NanoDrop One/One^c). RNA samples were stored at −80 °C.
In order to perform cDNA synthesis, the First Strand cDNA synthesis kit (Thermo Scientific, K1612) was used. The previously isolated RNA was mixed with 1 µL of oligo dT18 primer into a pcr tube. Nuclease free water was added to reach a final volume of 11 µL. Samples were centrifuged at 1200 rcf for 5 min and were then placed on a thermomixer at 65 °C for a few minutes. A master mix was prepared, including 4 µL of 5× reaction buffer, 1 µL of ribolock RNAse inhibitor, 2 µL of dntp mix (10 mM), and 2 µL of M‐mulv reverse transcriptase for each sample. In total 9 µL of master mix were added to each vial. Samples were centrifuged again and were finally synthesized, following a cycle of 60 min at 37 °C and 5 min at 70 °C. cDNA was now finally synthesized and could be stored at −20 °C. RT‐PCRs reactions were performed using SYBR Green (Bio‐Rad, 1,725,271) (5 µL per sample), primer mix (0.3 µM) (2 µL per sample), and cDNA (10 ng µL^− ^1) (3 µL per sample). […] RT‐PCR assays were carried out in a GeneAmp 5700 Sequence Detection System programmed to hold at 50 °C for 30 min, to hold at 95 °C for 10 min, and to complete 45 cycles of 95 °C for […] and 50 °C for 1 min. The genes that were investigated are shown in Table 5 , with their respective forward and reverse primer sequences.

SUIT 2.28 = experiment: Annexin V apoptosis assay, SUIT 2.28; format: cell-based; conditions: 1× and 4 × IC50
Description: In order to investigate the apoptotic properties of the compounds 1b and 1g, the Annexin V apoptosis assay was performed. Annexins are calcium‐dependent phospholipid binding proteins, which are able to bind to phosphatidylserine (PS). The externalization of PS residues on the outer membrane of apoptotic cells can be detected by Annexin V.
For this assay, cells were seeded in a 96‐well plate at a concentration of 13.5 × 10^3 and 4.5 × 10^3 /well respectively for the 24 and 72 h experiments. The next day cells were treated with compounds 1b and 1g at 1 × IC50 and 4 × IC50 concentrations. The apoptosis assay was performed 24 and 72 h post‐treatment following the BD Pharmingen FITC Annexin V Apoptosis Detection Kit I (BD Biosciences, 556,547). The supernatant was aspirated, and cells were washed with phosphate‐buffered saline (PBS). Cells were consequently treated with binding buffer BBA + Annexin V (1:100) and were incubated in the dark at RT for 10 min. The supernatant was removed, and the cells were washed with BBA (1:10). Cells were then incubated with BBA + PI (1:100) and were immediately read with the spectrophotometer at ex. 485/ em. 535. Two different programs were used to read the Annexin V and the PI absorbance. Lastly, 100 µL of PBS were added to each well before being fixed with TCA. This was followed by the SRB assay to standardize fluorescence data according to cell count. Data were exported into GraphPad Prism 10 for statistical analysis.

[1] = molecular target: phosphorylated CDK7 (p‐CDK7) (Homo sapiens, UniProt P50613); experiment: Phospho‐CDK7 (Thr170) cell‐based ELISA, SUIT 2.28; design: two PDAC preclinical models (SUIT 2.28 and PDAC3); endogenous in cells; host or cells: SUIT 2.28; conditions: SUIT 2.28, 4 × IC50, ELISA
Description: To detect CDK7 and phospho‐CDK7 levels at Thr170 residue after treatment, an enzyme‐linked immunosorbent assay (Biomatik, Phospho‐CDK7 (Thr170) Colorimetric Cell‐Based ELISA Kit, Cat# EKA51274) was performed according to the manufacturer's protocols. […] The absorbance was read at 450 nm using a microplate reader.

Sequence of phosphorylated CDK7 (p‐CDK7) (P50613 2-346 limits assumed): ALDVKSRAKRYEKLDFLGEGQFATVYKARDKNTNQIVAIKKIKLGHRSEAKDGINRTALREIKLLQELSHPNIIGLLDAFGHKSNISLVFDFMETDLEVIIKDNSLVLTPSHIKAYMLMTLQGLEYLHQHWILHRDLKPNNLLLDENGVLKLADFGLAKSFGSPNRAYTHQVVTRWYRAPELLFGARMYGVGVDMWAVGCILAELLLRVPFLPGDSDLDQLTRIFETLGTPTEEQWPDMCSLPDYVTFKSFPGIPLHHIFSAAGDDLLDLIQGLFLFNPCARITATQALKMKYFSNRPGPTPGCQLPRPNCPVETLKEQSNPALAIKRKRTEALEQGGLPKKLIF
Sequence of phosphorylated CDK7 (p‐CDK7) (P51946 whole entry partner): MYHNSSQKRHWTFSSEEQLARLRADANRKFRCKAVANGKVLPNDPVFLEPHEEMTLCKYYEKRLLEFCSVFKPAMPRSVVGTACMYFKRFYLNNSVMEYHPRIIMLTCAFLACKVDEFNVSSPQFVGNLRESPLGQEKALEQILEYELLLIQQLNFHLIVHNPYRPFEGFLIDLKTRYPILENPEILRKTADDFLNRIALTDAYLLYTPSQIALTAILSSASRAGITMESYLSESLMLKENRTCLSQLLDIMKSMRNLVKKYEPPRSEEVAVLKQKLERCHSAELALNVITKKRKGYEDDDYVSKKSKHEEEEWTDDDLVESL
Sequence of phosphorylated CDK7 (p‐CDK7) (P51948 whole entry partner): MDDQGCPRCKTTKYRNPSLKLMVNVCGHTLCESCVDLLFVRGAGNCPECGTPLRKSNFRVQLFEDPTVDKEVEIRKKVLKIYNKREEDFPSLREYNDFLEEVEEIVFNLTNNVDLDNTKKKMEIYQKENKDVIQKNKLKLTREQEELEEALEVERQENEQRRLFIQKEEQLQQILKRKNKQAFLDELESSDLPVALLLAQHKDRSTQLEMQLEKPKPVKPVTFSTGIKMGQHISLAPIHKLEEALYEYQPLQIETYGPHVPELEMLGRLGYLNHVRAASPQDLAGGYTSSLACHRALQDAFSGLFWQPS

## Nc1ncnc2cc(-c3c[nH]c4ccc(Br)cc34)nn12 [Compound 1b, 7‐(5‐Bromo‐1H‐indol‐3‐yl)pyrazolo[1,5‐a][1,3,5]triazin‐4‐amine]
PDAC3
  inhibition of cell migration: significant migration inhibition only at the 24‐hour time point
Bax/Bcl‐2; 1 × IC50, 24 h after treatment
  Bax/Bcl‐2 ratio PDAC3: 0.44
Bax/Bcl‐2; 4 × IC50, 24 h after treatment
  Bax/Bcl‐2 ratio PDAC3: 0.01
SUIT 2.28; SUIT 2.28, 24 h
  apoptotic index: below 1.5
SUIT 2.28; SUIT 2.28, 72 h
  apoptotic index: higher apoptotic index
[1]
  p‐CDK7 expression vs untreated: decrease in p‐CDK7 expression

## Cn1cc(-c2cc3ncnc(N)n3n2)c2cc(Br)ccc21 [Compound 1g, 7‐(5‐Bromo‐1‐methyl‐1H‐indol‐3‐yl)pyrazolo[1,5‐a][1,3,5]triazin‐4‐amine]
PDAC3
  inhibition of cell migration: significant migration inhibition only at the 24‐hour time point
Bax/Bcl‐2; 1 × IC50, 24 h after treatment
  Bax/Bcl‐2 ratio PDAC3: 0.36
Bax/Bcl‐2; 4 × IC50, 24 h after treatment
  Bax/Bcl‐2 ratio PDAC3: 0.38
SUIT 2.28; SUIT 2.28, 24 h
  apoptotic index: below 1.5
SUIT 2.28; SUIT 2.28, 72 h
  apoptotic index: higher apoptotic index
[1]
  p‐CDK7 expression vs untreated: decrease in p‐CDK7 expression
